The subject of one assay is HCAEC. In words: HCAEC retention under unidirectional fluid flow. It counts as cell-based, human. The conditions noted are these: 15 dyne/cm^2, thirty minutes. As for the experimental part:
(§1) In addition to the above, 75×38×1 mm glass microscope slides (Fisher Scientific Research, Pittsburgh, Pa.) were sterilized and coated overnight with human plasma fibronectin or CS-1 peptide at 5 μg/cm^2, or with PBS only. Slides were incubated for one hour at room temperature with a 0.01% (w/v) sterile-filtered BSA solution. HCAEC or HUVEC were seeded in basal medium on slides at 1.85×10^4 cells/cm^2 and permitted to adhere for eight hours under static conditions at 37° C. Fluid flow was performed using parallel plate flow chambers connected to fluid flow loops, as described in Pavalko et al., Fluid shear stress inhibits TNF-alpha-induced apoptosis in osteoblasts: a role for fluid shear stress-induced activation of PI3-kinase and inhibition of caspase-3. J Cell Phys 194, 194, 2002. Briefly, endothelial cell-seeded slides were secured within flow chambers and connected to fluid flow loops. All flows were performed in a 37° C. environment with serum-free culture medium that was continually bathed in a 5% CO2 atmosphere. […] Fluorescence micrographs were captured as described above. […] Nuclei were counted from five equally distributed visual fields per slide and pooled together for each substrate condition. Data was calculated as percent (%) cell retention, where % retention=[(average nuclei count)flow÷(average nuclei count)static]×100.

In assay [1] the test system is human platelets. As to the kind of experiment: DiOC6-labeled platelet adhesion imaging under shear flow. It counts as cell-based. The conditions noted are these: 16.5 dyne/cm^2, one hour, platelets activated prior to flow. The protocol: To visualize shear stress-mediated platelet adhesion to the immobilized ECM proteins, non-radiolabeled non-activated or thrombin-activated human platelets were prepared as described above, but were first incubated for ten minutes at room temperature with a 10 μM DiOC6 (dihexaoxacarbocyanine iodide) (Sigma) solution prior to being subjected to flow for one hour at a shear stress τ=16.5 dyne/cm^2. Post-flow, all slides were rinsed twice with PBS and fixed with 4% (w/v) paraformaldehyde. Platelet adhesion was visualized on a Nikon Diaphot 200 inverted epifluorescence microscope (Nikon) at 488 nm using a 40× objective. Images were captured using an Olympus DP70 digital camera (Olympus America, Inc.) and analyzed using the Adobe® Photoshop® software package version 6.0 (Adobe Systems Incorporated, San Jose, Calif.).

In assay [2] the test system is human platelets. In words: 51Cr-labeled platelet adhesion to immobilized ECM proteins under shear flow. Format: cell-based. The conditions noted are these: 16.5 dyne/cm^2, one hour; non-activated and thrombin-activated; versus CS-1 and glass control. The protocol:
Characterization of human platelet adhesion to immobilized extracellular matrix proteins was performed by subjecting non-activated or thrombin-activated human platelets to a shear stress τ=16.5 dyne/cm^2 for one hour using a peristaltic pump-driven parallel plate fluid flow system. Washed human platelets were isolated as described above, resuspended in platelet washing buffer (PWB), and adjusted to a final concentration of approximately 0.5-1.0×10^9 platelets/ml. The platelet suspensions were incubated for thirty minutes at room temperature with 25 μCi/ml Na2^51CrO4 (GE Healthcare, Piscataway, N.J.). ^51Cr-labeled platelets were centrifuged at 2000×g for three minutes at room temperature and resuspended in 20 ml fresh frozen plasma previously thawed and warmed to 37° C. The ^51Cr-platelet/plasma solution was distributed equally (5 ml) into each of four reservoirs containing an additional 50 ml of 37° C. human plasma. For thrombin-activated platelets, 1 U thrombin (Sigma) per 3 ml platelet suspension was added immediately prior to aliquoting the ^51Cr-platelet/plasma solution into the flow loop reservoirs.
75×38×1 mm glass microscope slides were coated with ECM proteins as described above. Slides were incubated for one hour at room temperature with a 0.25% (w/v) sterile-filtered BSA solution. […]

For another assay, the system named is HUVEC. As to the kind of experiment: HUVEC retention under unidirectional fluid flow. Format: cell-based, human. As to conditions: 15 dyne/cm^2, thirty minutes; CS-1 p=0.1, fibronectin p=0.07. The protocol: as §1

In the case of “CS-1: full-length 25 amino acid polypeptide, first 25 amino acid sequence of the fibronectin type IIICS domain (DELPQLVTLPHPNLHGPEILDVPST; Homo sapien)”, the “HCAEC percent retention versus non-ECM-coated control substrate” value with HCAEC (p<0.05) was “statistically greater”. Also, the “HCAEC percent retention versus fibronectin substrate” value in the assay on HCAEC (p=0.9) is “not statistically different”. In addition, the “thrombin-activated platelet adhesion and thrombus formation (DiOC6 images)” value with human platelets [1] is “higher binding to the CS-1 substratum relative to their non-activated counterparts”. Further, the “flowed platelet binding (51Cr), both states of activation” value in the assay on human platelets [2] is “lack of significant upregulation in platelet binding”. Moreover, the “HUVEC percent retention versus control substrate” value in the assay on HUVEC is “not statistically distinguishable from the control substrate”.

Values taken from US20100008965A1, “BIOCOMPATIBLE MEDICAL PRODUCTS HAVING ENHANCED ANTI-THROMBOGENIC PROPERTIES” (priority 2008, published 2010).
